Results as given in patent publication US8927549B2, “Adamantyl benzamide derivatives” (High Point Pharmaceuticals, LLC, priority 2008, dated 2015).

Target: T1, 11β-HSD (Homo sapiens, UniProt P28845)
T1 construct: from tissue
Experiment: in vitro 11β-HSD Assay (human microsomes, CISBIO Cortisol kit)
Type: biochemical
Details: 160 nM cortisone, 200 μM NADPH, 2 h at 37° C.
Experimental: Protocol for in vitro 11β-HSD Assay
CISBIO Cortisol kit #62CO2PEB
Assay Buffer: (water based) used for Enzyme, Compounds and Microsomes: 20 mM Tris, 5 mM EDTA, and pH 6.0.
Enzyme Buffer: 333 μM NADPH (FAC 200 μM) and 266 nM Cortisone (FAC 160 nM).
1) Test compounds (10 mM stock in 100% DMSO) were diluted in Assay Buffer (see below) with 1% DMSO FAC and placed into the 96-well plate. Test compounds were typically tested over 10 concentrations (30 μM-0.3 nM).
2) 30 μL Enzyme Buffer, 10 μL Test Compound, 10 μL human microsomes were added to the test compounds and mixed gently by tapping the plate.
3) The plates were incubated for 2 h at 37° C.
4) 25 μL anti Cortisol-K and 25 μL Cortisol d2 were added to the plate and mixed gently by tapping the plate.
5) The plates were incubated at room temperature for 2 h.
6) The plates were read on an Envision model 2120 Perkin-Elmer using emission filters #205 and #217.

T1 sequence (P28845 whole entry): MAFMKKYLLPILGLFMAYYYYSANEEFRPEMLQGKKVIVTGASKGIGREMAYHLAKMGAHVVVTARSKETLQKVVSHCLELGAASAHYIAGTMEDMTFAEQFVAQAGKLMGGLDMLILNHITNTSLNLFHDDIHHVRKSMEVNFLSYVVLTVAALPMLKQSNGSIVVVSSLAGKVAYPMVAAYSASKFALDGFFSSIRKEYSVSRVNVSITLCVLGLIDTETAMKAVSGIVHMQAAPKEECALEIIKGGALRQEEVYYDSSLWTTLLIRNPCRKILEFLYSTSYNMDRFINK

O=C(NC1C2CC3CC1CC(O)(C3)C2)c1cccc(Oc2ccc(Cl)cn2)c1 (stereo not drawn) [Example 1, 3-(5-Chloro-pyridin-2-yloxy)-N-[(E)-5-hydroxy-adamantan-2-yl]-benzamide] was tested. Which EC50 did it give?
The EC50 was under 200 nM.

For O=C(NC1C2CC3CC1CC(O)(C3)C2)c1cccc(S(=O)(=O)c2ccc(Cl)cn2)c1 (stereo not drawn) [Example 5, 3-(5-Chloro-pyridine-2-sulfonyl)-N-[(E)-5-hydroxy-adamantan-2-yl]-benzamide], which EC50 is on record?
Its EC50 is under 3000 nM.

O=C(NC1C2CC3CC1CC(O)(C3)C2)c1cccc([S+]([O-])c2ccc(Cl)cn2)c1 (stereo not drawn) [Example 4, 3-(5-Chloro-pyridine-2-sulfinyl)-N-[(E)-5-hydroxy-adamantan-2-yl]-benzamide] was tested. Which EC50 did it give?
Its EC50 is under 500 nM.

Which EC50 does the source give for O=C(NC1C2CC3CC1CC(O)(C3)C2)c1cccc(Nc2ccc(Cl)cn2)c1 (stereo not drawn) [Example 8, 3-(5-Chloro-pyridin-2-ylamino)-N-[(E)-5-hydroxy-adamantan-2-yl]-benzamide] here?
The EC50 was under 200 nM.

Which EC50 does the source give for Cc1cc(C)nc(Nc2cccc(C(=O)NC3C4CC5CC3CC(O)(C5)C4)c2)n1 (stereo not drawn) [Example 9, 3-(4,6-Dimethyl-pyrimidin-2-ylamino)-N-[(E)-5-hydroxy-adamantan-2-yl]-benzamide] here?
Its EC50 is under 500 nM.

For O=C(NC1C2CC3CC1CC(O)(C3)C2)c1cccc(Oc2ncc(Cl)cc2Cl)c1 (stereo not drawn) [Example 7, 3-(3,5-Dichloro-pyridin-2-yloxy)-N-[(E)-5-hydroxy-adamantan-2-yl]-benzamide], which EC50 is on record?
Its EC50 is under 200 nM.

For O=C(NC1C2CC3CC1CC(O)(C3)C2)c1cccc(Sc2ccc(Cl)cn2)c1 (stereo not drawn) [Example 3, 3-(5-Chloro-pyridin-2-ylsulfanyl)-N-[(E)-5-hydroxy-adamantan-2-yl]-benzamide], which EC50 is on record?
Its EC50 is under 200 nM.

Which EC50 does the source give for O=C(NC1C2CC3CC1CC(O)(C3)C2)c1cccc(Oc2ccc(Cl)nn2)c1 (stereo not drawn) [Example 6, 3-(6-Chloro-pyridazin-3-yloxy)-N-[(E)-5-hydroxy-adamantan-2-yl]-benzamide] here?
Its EC50 is under 200 nM.

For O=C(NC1C2CC3CC1CC(O)(C3)C2)c1cccc(Oc2ccc(C(F)(F)F)cn2)c1 (stereo not drawn) [Example 2, N-[(E)-5-Hydroxy-adamantan-2-yl]-3-(5-trifluoromethyl-pyridin-2-yloxy)-benzamide], which EC50 is on record?
The EC50 was under 200 nM.
